Assay results from ChEMBL document CHEMBL1201862, “PubChem BioAssay data set” (2004).
Active and inactive are the calls of the source.

What was measured:
[1] = target: X-box-binding protein 1 (Homo sapiens, UniProt P17861); assay type: functional, Cricetulus griseus;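 also: confirmatory dose-response counter-screen serving a CHOP assay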
[2] = target: 26S proteasome non-ATPase regulatory subunit 14 (Homo sapiens, UniProt O00487); experiment: inhibition of proteasome subunit RPN11 – biochemical, fluorescence polarization, uHTS hits, confirmation (AID 602368); assay type: functional
[3] = target: 72 kDa type IV collagenase (Homo sapiens, UniProt P08253); experiment: Dose Response validation of uHTS RPN11 inhibitor hits using a MMP-2 Fluorescence assay.; assay type: functional
[4] = target: Prothrombin (Bos taurus, UniProt P00735); experiment: thrombin inhibition, dose response, biochemical, fluorescence polarization, uHTS hits (AID 602369); assay type: functional
[5] = test system: Salmon testes DNA; experiment: DNA intercalators displacing acridine orange, dose response, artefact control for KSHV LANA DNA-binding inhibitor project, biochemical, fluorescence polarization, cherry-picked samples, set 2 (AID 504727); parameters: species or system Salmonidae
[6] = target: T1, ORF 73 (Human herpesvirus 8, UniProt O40947); experiment: inhibitors of C-LANA binding to LBS DNA, dose response, biochemical, fluorescence polarization, cherry-picked samples (AID 504725); parameters: species or system Human gammaherpesvirus 8;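 also: fluorescence polarization of a labeled DNA duplex reporting LANA DNA binding; potency is for inhibitors that block LANA binding to the DNA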
T1 sequence (O40947 whole entry): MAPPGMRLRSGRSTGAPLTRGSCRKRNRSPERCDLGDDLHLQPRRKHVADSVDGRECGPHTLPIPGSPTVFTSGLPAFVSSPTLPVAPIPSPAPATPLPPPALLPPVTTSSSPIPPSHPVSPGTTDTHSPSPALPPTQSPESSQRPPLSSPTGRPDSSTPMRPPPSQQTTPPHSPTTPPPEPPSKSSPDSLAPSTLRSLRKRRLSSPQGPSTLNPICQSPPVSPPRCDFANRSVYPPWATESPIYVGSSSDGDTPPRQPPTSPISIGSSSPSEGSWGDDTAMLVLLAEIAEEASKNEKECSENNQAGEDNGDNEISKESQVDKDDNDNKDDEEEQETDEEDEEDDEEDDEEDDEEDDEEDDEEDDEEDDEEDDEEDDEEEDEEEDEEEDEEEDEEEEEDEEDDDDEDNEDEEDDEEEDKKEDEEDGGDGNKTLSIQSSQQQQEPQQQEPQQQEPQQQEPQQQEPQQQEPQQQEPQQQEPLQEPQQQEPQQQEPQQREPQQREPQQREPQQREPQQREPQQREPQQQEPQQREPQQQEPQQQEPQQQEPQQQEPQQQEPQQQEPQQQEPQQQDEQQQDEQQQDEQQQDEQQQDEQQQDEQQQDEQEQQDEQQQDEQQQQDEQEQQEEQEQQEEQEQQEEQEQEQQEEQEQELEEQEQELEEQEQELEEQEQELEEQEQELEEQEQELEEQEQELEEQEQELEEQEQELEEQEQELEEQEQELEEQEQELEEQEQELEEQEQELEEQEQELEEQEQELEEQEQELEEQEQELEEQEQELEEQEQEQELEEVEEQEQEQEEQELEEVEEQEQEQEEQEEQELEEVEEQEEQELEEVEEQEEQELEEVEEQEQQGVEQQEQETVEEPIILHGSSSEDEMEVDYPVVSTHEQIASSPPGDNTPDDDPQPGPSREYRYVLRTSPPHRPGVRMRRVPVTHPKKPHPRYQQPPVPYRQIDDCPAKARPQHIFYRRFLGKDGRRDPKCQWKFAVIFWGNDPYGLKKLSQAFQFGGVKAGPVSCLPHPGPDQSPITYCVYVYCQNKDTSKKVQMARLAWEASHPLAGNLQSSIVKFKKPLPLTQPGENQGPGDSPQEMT

[7] = target: Keap1/Nrf2 (Homo sapiens, UniProt Q14145); experiment: Keap1-Nrf2 protein-protein interaction inhibitors, dose response, biochemical, fluorescence polarization, cherry-picked samples (AID 588683)
[8] = target: T2, Corticotropin-releasing factor receptor 2/Corticotropin-releasing factor-binding protein (Homo sapiens, UniProt P24387+Q13324); experiment: activators of CRF receptor 2 with binding protein – uHTS hits, confirmation (AID 602473); assay type: functional; details: read-out: EC50_Mean
T2 sequence (Q13324 whole entry): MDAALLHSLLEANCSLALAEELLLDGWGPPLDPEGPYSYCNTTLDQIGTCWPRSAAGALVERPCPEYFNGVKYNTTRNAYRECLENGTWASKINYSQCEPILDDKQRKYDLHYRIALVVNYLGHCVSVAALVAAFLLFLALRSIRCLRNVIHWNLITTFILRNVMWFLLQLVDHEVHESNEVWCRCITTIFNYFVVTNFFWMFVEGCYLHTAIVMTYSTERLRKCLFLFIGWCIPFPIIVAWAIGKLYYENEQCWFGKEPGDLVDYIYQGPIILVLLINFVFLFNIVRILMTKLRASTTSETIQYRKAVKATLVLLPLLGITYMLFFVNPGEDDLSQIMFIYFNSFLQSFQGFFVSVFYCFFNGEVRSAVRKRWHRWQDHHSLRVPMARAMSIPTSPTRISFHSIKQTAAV
T2 sequence (P24387 whole entry): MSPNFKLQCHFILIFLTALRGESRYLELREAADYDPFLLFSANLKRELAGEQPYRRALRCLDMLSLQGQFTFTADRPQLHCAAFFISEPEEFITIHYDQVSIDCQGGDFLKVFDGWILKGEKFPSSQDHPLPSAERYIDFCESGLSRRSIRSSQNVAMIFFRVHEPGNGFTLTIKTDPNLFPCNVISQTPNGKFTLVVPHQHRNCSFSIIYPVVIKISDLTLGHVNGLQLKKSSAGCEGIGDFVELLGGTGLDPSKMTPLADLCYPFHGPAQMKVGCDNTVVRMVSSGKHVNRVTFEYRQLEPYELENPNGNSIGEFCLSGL

[9] = test system: MDA-MB-435; experiment: cells; assay type: functional, cell-based; details: Homo sapiens
[10] = growth suppression of PTEN-null colon cells, dose response, cell-based, HCT116 PTEN knockout (AID 1047); assay type: functional;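 also: HCT116 colon tumor cells with PTEN knocked out; cells exposed to compound for 60 hours before readout; potency for loss of cell viability measured by luminescence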
[11] = cytotoxicity toward NIH3T3 fibroblasts, dose response, counter-screen, cell-based, ATP luminescence, mouse fibroblasts (AID 2010); assay type: functional;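 also: cells exposed to compound for about 90 hours before reading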
[12] = growth suppression of beta-catenin-knockout colon cells, dose response, cell-based, HCT116, human colon tumor (AID 1045); assay type: functional;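 also: HCT116 colon tumor cells with beta catenin knocked out; cells exposed to compound for 60 hours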
[13] = cells; assay type: functional, cell-based; details: PPC-1
[14] = target: T3, Phosphomannomutase 2 (Homo sapiens, UniProt O15305); experiment: Counter screen SAR assay for PMM2 inhibitors via a fluorescence intensity assay. [Related pubchem assays (depositor defined):AID1545, AID1574]
T3 sequence (O15305 whole entry): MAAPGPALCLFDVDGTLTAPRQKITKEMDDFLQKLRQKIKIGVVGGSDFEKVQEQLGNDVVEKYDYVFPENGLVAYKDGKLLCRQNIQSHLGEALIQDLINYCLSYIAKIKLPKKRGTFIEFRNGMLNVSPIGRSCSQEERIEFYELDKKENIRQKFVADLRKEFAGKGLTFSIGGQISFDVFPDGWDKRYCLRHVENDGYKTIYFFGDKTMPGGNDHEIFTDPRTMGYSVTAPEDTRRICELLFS

[15] = target: Cytochrome P450 2C19 (Homo sapiens, UniProt P33261); experiment: Cytochrome panel assay with activity outcomes. Panel member name: p450-cyp2c19 Compounds with AC50 equal or less than 10 uM are considered active; assay type: functional; details: read-out: AC50
Sequence of Cytochrome P450 2C19 (P33261 whole entry): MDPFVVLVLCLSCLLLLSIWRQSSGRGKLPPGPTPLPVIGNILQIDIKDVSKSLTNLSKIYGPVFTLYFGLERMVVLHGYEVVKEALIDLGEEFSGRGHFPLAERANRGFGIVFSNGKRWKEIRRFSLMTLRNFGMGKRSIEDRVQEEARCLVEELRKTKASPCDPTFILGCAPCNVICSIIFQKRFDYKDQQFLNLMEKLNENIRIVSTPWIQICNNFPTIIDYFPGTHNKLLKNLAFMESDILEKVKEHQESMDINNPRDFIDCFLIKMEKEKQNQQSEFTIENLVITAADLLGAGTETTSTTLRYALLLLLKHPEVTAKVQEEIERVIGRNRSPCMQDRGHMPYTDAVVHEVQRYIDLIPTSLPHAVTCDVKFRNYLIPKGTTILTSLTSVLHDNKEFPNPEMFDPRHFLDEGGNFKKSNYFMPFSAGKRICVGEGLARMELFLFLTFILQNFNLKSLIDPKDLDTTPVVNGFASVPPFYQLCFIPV

Sequence of Keap1/Nrf2 (Q16236 whole entry): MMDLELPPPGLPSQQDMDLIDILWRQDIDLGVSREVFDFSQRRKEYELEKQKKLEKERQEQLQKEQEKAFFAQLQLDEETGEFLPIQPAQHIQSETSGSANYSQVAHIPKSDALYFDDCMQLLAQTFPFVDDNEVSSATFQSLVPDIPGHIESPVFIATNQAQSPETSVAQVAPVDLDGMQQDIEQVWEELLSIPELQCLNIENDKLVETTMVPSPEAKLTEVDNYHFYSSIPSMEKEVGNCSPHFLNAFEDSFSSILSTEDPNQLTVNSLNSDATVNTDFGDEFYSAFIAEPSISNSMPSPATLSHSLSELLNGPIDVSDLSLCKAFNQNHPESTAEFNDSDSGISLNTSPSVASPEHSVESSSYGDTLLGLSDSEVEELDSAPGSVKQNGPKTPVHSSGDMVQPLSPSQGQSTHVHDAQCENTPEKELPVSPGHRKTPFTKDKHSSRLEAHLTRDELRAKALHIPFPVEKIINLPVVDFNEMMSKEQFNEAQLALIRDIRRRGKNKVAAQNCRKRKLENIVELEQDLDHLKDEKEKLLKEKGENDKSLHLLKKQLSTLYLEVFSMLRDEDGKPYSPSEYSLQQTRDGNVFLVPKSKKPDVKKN
Sequence of Keap1/Nrf2 (Q14145 whole entry): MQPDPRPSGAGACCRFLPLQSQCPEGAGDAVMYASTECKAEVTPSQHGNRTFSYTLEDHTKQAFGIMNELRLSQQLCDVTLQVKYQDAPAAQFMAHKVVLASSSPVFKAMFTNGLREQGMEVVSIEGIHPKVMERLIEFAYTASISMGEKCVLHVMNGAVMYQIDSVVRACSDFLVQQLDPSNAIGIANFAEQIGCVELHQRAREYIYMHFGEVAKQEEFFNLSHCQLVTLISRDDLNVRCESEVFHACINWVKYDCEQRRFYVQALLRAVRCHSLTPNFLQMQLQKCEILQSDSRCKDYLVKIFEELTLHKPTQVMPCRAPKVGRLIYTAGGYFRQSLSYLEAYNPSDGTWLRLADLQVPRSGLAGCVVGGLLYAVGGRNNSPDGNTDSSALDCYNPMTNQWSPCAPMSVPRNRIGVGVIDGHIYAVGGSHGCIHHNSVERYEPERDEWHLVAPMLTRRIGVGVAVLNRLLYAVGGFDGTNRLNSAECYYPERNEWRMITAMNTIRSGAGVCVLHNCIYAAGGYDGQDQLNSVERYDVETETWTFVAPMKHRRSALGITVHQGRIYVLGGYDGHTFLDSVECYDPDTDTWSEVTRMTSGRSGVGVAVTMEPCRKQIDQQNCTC
Sequence of 72 kDa type IV collagenase (P08253 whole entry): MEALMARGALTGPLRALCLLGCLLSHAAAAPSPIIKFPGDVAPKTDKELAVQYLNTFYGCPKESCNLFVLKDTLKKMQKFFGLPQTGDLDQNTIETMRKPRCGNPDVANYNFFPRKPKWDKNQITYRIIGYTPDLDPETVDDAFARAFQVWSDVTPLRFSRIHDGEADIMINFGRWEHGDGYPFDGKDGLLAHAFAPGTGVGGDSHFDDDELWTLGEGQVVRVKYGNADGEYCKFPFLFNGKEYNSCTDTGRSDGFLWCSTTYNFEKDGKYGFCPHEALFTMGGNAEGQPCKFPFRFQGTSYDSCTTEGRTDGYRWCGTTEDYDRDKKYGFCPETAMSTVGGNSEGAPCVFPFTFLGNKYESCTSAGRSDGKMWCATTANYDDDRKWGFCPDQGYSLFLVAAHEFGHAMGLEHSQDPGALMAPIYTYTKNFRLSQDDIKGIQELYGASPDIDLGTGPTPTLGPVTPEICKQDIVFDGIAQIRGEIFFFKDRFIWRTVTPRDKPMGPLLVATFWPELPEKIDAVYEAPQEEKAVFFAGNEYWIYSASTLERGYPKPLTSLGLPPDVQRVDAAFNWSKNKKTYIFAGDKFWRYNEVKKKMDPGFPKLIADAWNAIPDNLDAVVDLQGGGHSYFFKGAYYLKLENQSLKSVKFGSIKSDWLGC
Sequence of X-box-binding protein 1 (P17861 whole entry): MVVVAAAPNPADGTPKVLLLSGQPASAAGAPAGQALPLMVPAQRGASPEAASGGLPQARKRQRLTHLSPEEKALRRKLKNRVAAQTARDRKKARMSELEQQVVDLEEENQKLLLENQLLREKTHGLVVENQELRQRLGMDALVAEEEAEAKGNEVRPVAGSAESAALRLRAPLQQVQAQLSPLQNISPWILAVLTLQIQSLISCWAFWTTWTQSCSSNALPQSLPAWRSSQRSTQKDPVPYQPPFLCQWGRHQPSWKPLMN
Sequence of 26S proteasome non-ATPase regulatory subunit 14 (O00487 whole entry): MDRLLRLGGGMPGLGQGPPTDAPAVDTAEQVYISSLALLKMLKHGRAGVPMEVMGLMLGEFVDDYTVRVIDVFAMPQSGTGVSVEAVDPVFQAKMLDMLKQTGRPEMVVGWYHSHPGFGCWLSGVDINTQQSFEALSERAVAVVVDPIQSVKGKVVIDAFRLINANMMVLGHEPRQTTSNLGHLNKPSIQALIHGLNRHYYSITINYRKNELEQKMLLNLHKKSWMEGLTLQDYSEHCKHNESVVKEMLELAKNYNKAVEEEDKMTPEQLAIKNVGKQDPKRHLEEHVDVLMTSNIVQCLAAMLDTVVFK

SMILES: Cc1cccc(OCc2nnc(SCc3nc(O)c4ccc(C(F)(F)F)cc4n3)o2)c1
- Absolute IC50 (XBP1) [1]: 10 µM
- IC50 [2]: 21.5 µM (active)
- IC50 [3]: > 100 µM (inactive)
- IC50 [4]: 29.7 µM (active)

SMILES: Cc1ccccc1N1C(=O)c2cccc3c(N(C)CCO)ccc(c23)C1=O
- AC50 [5]: 68.4 µM (active)
- AC50 [6]: 172 µM (active)
- AC50 [7]: > 52 µM (inactive)
- EC50 [8]: 5.5 µM (active)

SMILES: CSc1nc(-c2ccc(C)cc2)nc(C(Cl)Cl)n1
- IC50 [9]: > 10 µM (inactive)
- EC50 [10]: 0.824 µM (active)
- EC50 [11]: > 60 µM (inconclusive)
- EC50 [12]: 0.714 µM (active)
- IC50 [13]: > 10 µM (inactive)
- IC50 [14]: > 100 µM (inactive)
- AC50 [15]: 0.398 µM (inconclusive)
